Experimental data from patent US20250222136A1, “GENE EDITING SYSTEM FOR TREATING USHER SYNDROME” (GenKOre, Inc., priority 2022, published 2025).

How the values were obtained:
[1] = test system: USH2A gene (F region and R region of exon 13); experiment: Indel efficiency of USH2A guide RNA expression cassettes by next generation sequencing (NGS); assay type: cell-based, human; parameters: Indel efficiency (%) Cas12f1 ver3.0 / Indel efficiency (%) Cas12f1 ver4.0 / Indel efficiency (%) Cas12f1 ver4.1: concentration or dose not given beside the values; conditions: for Indel efficiency (%) Cas12f1 ver3.0: scaffold Cas12f1 ver3.0 (SEQ ID NO: 315); for Indel efficiency (%) Cas12f1 ver3.0 / Indel efficiency (%) Cas12f1 ver4.0 / Indel efficiency (%) Cas12f1 ver4.1: expression cassette, NGS; for Indel efficiency (%) Cas12f1 ver4.0: scaffold Cas12f1 ver4.0 (SEQ ID NO: 316); for Indel efficiency (%) Cas12f1 ver4.1: scaffold Cas12f1 ver4.1 (SEQ ID NO: 317)
Text: A nucleotide sequence encoding the guide RNA designed based on the protospacer sequence selected in Example 2.1 was constructed into an expression cassette, which was immediately transfected to confirm indel efficiency by next generation sequencing (NGS) without the T7E1 assay. Here, the guide RNA was designed to include a U-rich tail sequence (for example, 5′-U4AU6-3′) at the 3′-end.
To confirm indel efficiency of the guide sequences of Cas12f1, a cassette containing the U6 promoter, scaffold sequence, guide sequence, and U-rich tail sequence (T4AT6) was amplified by PCR and used. The process was performed as follows.
The spacer was selected from the 20mer sequence followed by TTTA or TTTG, which are PAM of Cas12f1, and spacers whose sequences end with T were excluded. In addition, to minimize off-target effects, the spacers were designed using CRISPR RGEN TOOL by classifying them with less than 2 mismatches. In addition, the reverse complement sequence comprising a DR (direct repeat) and U-rich sequence was used as an R primer.
1% agarose gel was prepared, and the size marker and PCR products were added to the gel. Electrophoresis was performed to confirm the amplified size.
After confirming the amplified size, the gel was purified according to Experimental Example 9 to quantify the PCR products.
(§1) The day before transfection, HEK293T and ARPE19-HPV cells (80% confluency) cultured in 100 mm dishes were treated with trypsin to detach from the bottom of the dish. The detached cells were placed in 50 ml of pre-warmed medium (see Experimental Example 15 for its composition) and slowly dissolved with a pipette. 24-well plates were prepared according to the number of samples and repetitions, and 500 μl of cell suspension medium was added to each well (1/100 dilution). Then, incubation was performed overnight in a CO2 incubator at 37° C. until transfection.
(§2) The next day, when the cell confluency reached approximately 70% to 80%, 200 μl of the 500 μl medium per well was removed and the plates were placed in the incubator. 1.5 ml tubes were prepared according to the number of samples, and 200 μl of Opti-MEM was added to each tube. 1.5 μg of Cas12f1 DNA and 0.5 μg of gRNA (or a vector containing nucleic acids encoding Cas12f1 DNA and two gRNAs) were added to the tube containing Opti-MEM, and vortexed for 5 seconds (nucleic acid mixture). Then, the nucleic acid mixture and FuGENE HD were added at a ratio of 1:3, and reaction was allowed to occur at room temperature for 20 minutes (that is, in a case where the nucleic acid mixture was 2 μg, 6 μl of FuGENE HD was administered). The 24-well plate was taken out from the incubator, and 200 μl of the solution containing the nucleic acid mixture and FuGENE HD was gently added along the well wall. After shaking the plate sufficiently in an S shape, it was incubated in a CO2 incubator at 37° C. for 72 hours. After 72 hours, the cells were harvested and gDNA was extracted therefrom according to Experimental Example 8.
(§3) NGS analysis to confirm indel efficiency for the target was performed over a total of three PCR rounds.
The conditions for conducting the first PCR for each region are disclosed in Tables 20 to 29 below.

[2] = test system: USH2A gene; experiment: Indel efficiency depending on length of the guide sequence; assay type: cell-based, human; conditions: highest value by guide length: F16 22mer, FA12 20mer, R19 24mer, R40 20mer; ver4.1 scaffold for F16, FA12, ver4.0 for R19, R40
Text: Each guide sequence (F16, FA12, R19, R40) selected through Examples 2 and 3 was modified to have a guide sequence of 19- to 25-mer length based on the PAM adjacent to the protospacer sequence, and vectors expressing the same were produced, respectively, to compare the indel efficiency depending on a length of the guide sequence. As for the scaffold sequence, Cas12f1 ver4.1 was used for F16 and FA12, and Cas12f1 ver4.0 was used for R19 and R40, as selected in Example 2.2.
as §1, §2, §3

Row | Molecule | Indel efficiency (%) Cas12f1 ver3.0 [1] [%] | Indel efficiency (%) Cas12f1 ver4.0 [1] [%] | Indel efficiency (%) Cas12f1 ver4.1 [1] [%] | also measured
1 | AUUAUACCUUCGUGAAGCUG (expressed or natural sequence) [GUIDE-USH2A-F17] | 0.02 | 0.02 | 0.18 | –
2 | CUUAGAAAGAAGGAUGUAUA (expressed or natural sequence) [GUIDE-USH2A-R40] | – | 21.35 | 8.07 | indel efficiency [2]: 73.99%
3 | UUUCUUUGCCUUGUAAUACC (expressed or natural sequence) [GUIDE-USH2A-F24] | 0.04 | 0.19 | – | –
4 | UCCAUAUAUAUACAUAUAUA (expressed or natural sequence) [GUIDE-USH2A-FA12] | 4.61 | – | 1.29 | indel efficiency [2]: 72.19%
5 | UAGACCCAUAUAACUCAGAG (expressed or natural sequence) [GUIDE-USH2A-R18] | 0.46 | – | – | –
6 | UAAUUCUACCACCAGCCACA (expressed or natural sequence) [GUIDE-USH2A-R26] | – | 6.41 | – | –
7 | UGUCUCGUCUAUCUUGAAUG (expressed or natural sequence) [GUIDE-USH2A-F02] | 1 | 0.23 | 0.03 | –
8 | UAAUGUGUACAUAUAUCAAA (expressed or natural sequence) [GUIDE-USH2A-F16] | 4.19 | 5.87 | 10.78 | –
9 | UAAUGUGUACAUAUAUCAAAAC (expressed or natural sequence) [GUIDE-USH2A-F16-22 mer] | – | – | – | indel efficiency [2]: 73%
10 | AAUAUGCCAUACAUAUUCC (expressed or natural sequence) [GUIDE-USH2A-FA20] | 2.78 | 0.58 | 1.03 | –
11 | ACUGUGUAGGAGACAAAGGA (expressed or natural sequence) [GUIDE-USH2A-R36] | – | 3.06 | – | –
12 | CUUGCCAGAGAAGGAGUAGAACAA (expressed or natural sequence) [GUIDE-USH2A-R19-24 mer] | – | – | – | indel efficiency [2]: 83%
13 | AGAGUAAGAUUGGCCCCCUA (expressed or natural sequence) [GUIDE-USH2A-F05] | 0.64 | 1.48 | 4.83 | –
14 | UGUUCGUAUCAUCUGCAGUA (expressed or natural sequence) [GUIDE-USH2A-F03] | 4.88 | 5.89 | 9.89 | –
15 | GGGUGAGAACAUUUAAGAUC (expressed or natural sequence) [GUIDE-USH2A-F15] | 0.55 | – | – | –
16 | UAUAGAAAUACCUAGAAUUG (expressed or natural sequence) [GUIDE-USH2A-R10] | 1.65 | 1.20 | – | –
17 | ACAGUGAUGAAUGACUCACC (expressed or natural sequence) [GUIDE-USH2A-FA10] | 4.41 | 1.52 | 1.89 | –
18 | CUUGCCAGAGAAGGAGUAGA (expressed or natural sequence) [GUIDE-USH2A-R19] | 26.08 | 27.24 | 9.48 | –
19 | GCAUUGGUCAGUGUGUAAGA (expressed or natural sequence) [GUIDE-USH2A-R22] | 6.32 | 16.03 | 15.79 | –
20 | MS2/MS3/MS4: engineered sgRNA, SEQ ID NO: 316 (nucleic acid, Engineered sgRNA with modification of MS2/MS3/MS4; misc_feature 128..147 n is a, c, g or u) guide: ACCGCUUCACCAAAAGCUGUCCCUUAGGGGAUUAGAACUUGAGUGAAGGUGGGCUGCUUGCAUCAGCCUAAUGUCGAGAAGUGCUUUCUUCGGAAAGUAACCCUCGAAACAAAGAAAGGAAUGCAACNNNNNNNNNNNNNNNNNNNNUUUUAUUUUUU | – | – | – | indel efficiency of cassette compared with Cas12f1 ver3.0 cassette ([1]; USH2A F and R region guide sequences): improved in most samples; indel efficiency, scaffold versions compared ([1]; target sequences located in the R region): higher indel efficiency than ver4.1
21 | MS2/MS3/MS4/MS5: engineered sgRNA, SEQ ID NO: 317 (nucleic acid, Engineered sgRNA with modification of MS2/MS3/MS4/MS5; misc_feature 99..118 n is a, c, g or u) guide: ACCGCUUCACUUAGAGUGAAGGUGGGCUGCUUGCAUCAGCCUAAUGUCGAGAAGUGCUUUCUUCGGAAAGUAACCCUCGAAACAAAGAAAGGAAUGCAACNNNNNNNNNNNNNNNNNNNNUUUUAUUUUUU | – | – | – | indel efficiency, scaffold versions compared ([1]; target sequences located in the F region): higher indel efficiency than ver4.0
